In patent USRE48097E1, “Cephem compounds, their production and use” (priority 2015, dated 2020):
Converted amounts (≈) assume the structure as drawn. Where two headings read alike, the source gives them in different places.

What was measured:
Type in all cases: cell-based
[1] = test system: S. aureus 3132; assay: MIC against S. aureus 3132; conditions: Table 2, S. aureus 3132, MSSA
From the text: (§1) Without limitation, the present cephem compounds alone, or in combination with one or more β-lactamase inhibitors, may provide improved antibacterial efficacy, particularly in antibiotic-resistant bacterial strains. It is believed that the present compounds may be structurally different from known compounds and, as a result, may be more basic in nature. It is an advantage that the present compounds may extend the spectrum of effective bacterial compounds, particularly against previously-resistant bacteria (e.g. ESKAPE organisms), and/or gram negative bacteria, without significant side effects. In a preferred embodiment, the present cephem compound may comprise reference compound ceftazidime, which may be used alone, or in combination with one or more β-lactamase inhibitors, such as NXL-104. As shown, the foregoing composition was tested for minimum inhibitory concentration (MIC, μg/mL) against bacteria listed in Tables 2-3.

[2] = test system: S. pneumoniae ATCC 700673; assay: MIC against S. pneumoniae ATCC 700673; conditions: Table 2, S. pneumoniae ATCC 700673, Pen R
From the text: as §1

[3] = test system: S. pneumoniae 2392; assay: MIC against S. pneumoniae 2392; conditions: Table 2, S. pneumoniae 2392, Pen R
From the text: as §1

[4] = test system: S. pneumoniae 2493; assay: MIC against S. pneumoniae 2493; conditions: Table 2, S. pneumoniae 2493, Pen R
From the text: as §1

[5] = test system: S. pneumoniae 2406; assay: MIC against S. pneumoniae 2406; conditions: Table 2, S. pneumoniae 2406, Pen S
From the text: as §1

[6] = test system: S. pneumoniae 2407; assay: MIC against S. pneumoniae 2407; conditions: Table 2, S. pneumoniae 2407, Pen S
From the text: as §1

[7] = test system: E. cloacae 2704; assay: MIC against E. cloacae 2704; conditions: Table 2, E. cloacae 2704, P99
From the text: as §1

[8] = test system: E. cloacae 551; assay: MIC against E. cloacae 551; conditions: Table 2, E. cloacae 551, Caz R, IMP S
From the text: as §1

[9] = test system: E. cloacae 2044; assay: MIC against E. cloacae 2044; conditions: Table 2, E. cloacae 2044, Caz S, IMP S
From the text: as §1

[10] = test system: K. pneumoniae 4106; assay: MIC against K. pneumoniae 4106; conditions: K. pneumoniae 4106, KPC-3, TEM-1, SHV-12, SHV-141
Procedure: (§2) As shown, the foregoing composition was tested for minimum inhibitory concentration (MIC, μg/mL) against bacteria listed in Tables 2-3.

[11] = test system: K. pneumoniae 4109; assay: MIC against K. pneumoniae 4109; conditions: Table 2, K. pneumoniae 4109, SHV-1, SHV-12
From the text: as §1

[12] = test system: E. coli 102; assay: MIC against E. coli 102; conditions: Table 2, E. coli 102, TEM-1
From the text: as §1

[13] = test system: E. cloacae 2709; assay: MIC against E. cloacae 2709; conditions: Table 3, E. cloacae 2709, KPC-3, VIM-1
Procedure: as §2

[14] = test system: K. pneumoniae 2713; assay: MIC against K. pneumoniae 2713; conditions: Table 3, K. pneumoniae 2713, KPC-3, VIM-1
Procedure: as §2

[15] = Staphylococcus aureus, alone, read-out: MIC
[16] = Streptococcus pneumoniae, ATCC700673, alone, read-out: MIC
[17] = Streptococcus pneumoniae, alone, read-out: MIC
[18] = Enterobacter cloacae, alone, read-out: MIC
[19] = Klebsiella pneumoniae, 4106, Table 2, alone, read-out: MIC
[20] = Klebsiella pneumoniae, 4106, Table 3, alone, read-out: MIC
[21] = Table 2, in combination with NXL-104
[22] = Table 3, in combination with NXL-104
[23] = Klebsiella pneumoniae, alone, read-out: MIC
[24] = Escherichia coli, alone, read-out: MIC

| SMILES | MIC [1, 15] [µg/mL] | MIC ([1]; in combination with NXL-104) [µg/mL] | MIC [2, 16] [µg/mL] | MIC ([2]; in combination with NXL-104) [µg/mL] | MIC [3, 17] [µg/mL] | MIC ([3]; in combination with NXL-104) [µg/mL] | MIC [4, 17] [µg/mL] | MIC ([4]; in combination with NXL-104) [µg/mL] | MIC [5, 17] [µg/mL] | MIC ([5]; in combination with NXL-104) [µg/mL] | MIC [6, 17] [µg/mL] | MIC ([6]; in combination with NXL-104) [µg/mL] | MIC [7, 18] [µg/mL] | MIC ([7]; in combination with NXL-104) [µg/mL] | MIC [8, 18] [µg/mL] | MIC ([8]; in combination with NXL-104) [µg/mL] | MIC [9, 18] [µg/mL] | MIC ([9]; in combination with NXL-104) [µg/mL] | MIC [10, 19] [µg/mL] | MIC [10, 20] [µg/mL] | further results |
| --- | --- | --- | --- | --- | --- | --- | --- | --- | --- | --- | --- | --- | --- | --- | --- | --- | --- | --- | --- | --- | --- |
| CC(C)(O/N=C(\C(=O)N[C@@H]1C(=O)N2C(C(=O)[O-])=C(C[n+]3ccc4c(ccn4Cc4cc(C(=N)N)cs4)c3)CS[C@H]12)c1csc(N)n1)C(=O)O [Example 5, (6R,7R)-7-{[(2Z)-2-(2-Amino-1,3-thiazol-4-yl)-2-{[(2-carboxypropan-2-yl)oxy]imino}acetyl]amino}-3-({1-[(4-carbamimidoylthiophen-2-yl)methyl]-1H-pyrrolo[3,2-c]pyridin-5-ium-5-yl}methyl)-8-oxo-5-thia-1-azabicyclo[4.2.0]oct-2-ene-2-carboxylate] | 2 | 2.00 | 2 | 2.00 | 2 | 1.00 | 2 | 2.00 | ≤ 0.06 | ≤0.06 | ≤ 0.06 | ≤0.06 | 16 | 2.00 | 32 | 1.00 | 0.5 | 0.12 | 16 (≈ 22.1 µM) | 32 (≈ 44.2 µM) | MIC [10, 21]: 1.00 µg/mL; MIC [10, 22]: 2 µg/mL; MIC [11, 23]: 8 µg/mL; MIC ([11]; in combination with NXL-104): 0.12 µg/mL; MIC [12, 24]: ≤ 0.06 µg/mL; MIC ([12]; in combination with NXL-104): ≤0.06 µg/mL; MIC [13, 18]: 32 µg/mL (≈ 44.2 µM); MIC ([13]; in combination with NXL-104): 4 µg/mL; MIC [14, 23]: > 32 µg/mL; MIC ([14]; in combination with NXL-104): 2 µg/mL |
| CC(C)(O/N=C(\C(=O)N[C@@H]1C(=O)N2C(C(=O)[O-])=C(C[n+]3ccc4c(ccn4Cc4cc(C(=N)N)co4)c3)CS[C@H]12)c1csc(N)n1)C(=O)O [Example 6, (6R,7R)-7-{[(2Z)-2-(2-Amino-1,3-thiazol-4-yl)-2-{[(2-carboxypropan-2-yl)oxy]imino}acetyl]amino}-3-({1-[(4-carbamimidoylfuran-2-yl)methyl]-1H-pyrrolo[3,2-c]pyridin-5-ium-5-yl}methyl)-8-oxo-5-thia-1-azabicyclo[4.2.0]oct-2-ene-2-carboxylate] | 4 | 4.00 | 2 | 2.00 | 2 | 2.00 | 2 | 2.00 | ≤ 0.06 | ≤0.06 | ≤ 0.06 | ≤0.06 | 32 | 1.00 | 16 | 1.00 | 0.12 | ≤0.06 | 16 (≈ 22.6 µM) | 32 (≈ 45.2 µM) | MIC [10, 21]: 1.00 µg/mL; MIC [10, 22]: 2 µg/mL; MIC [11, 23]: 8 µg/mL; MIC ([11]; in combination with NXL-104): 0.12 µg/mL; MIC [12, 24]: ≤ 0.06 µg/mL; MIC ([12]; in combination with NXL-104): ≤0.06 µg/mL; MIC [13, 18]: 32 µg/mL (≈ 45.2 µM); MIC ([13]; in combination with NXL-104): 4 µg/mL; MIC [14, 23]: > 32 µg/mL; MIC ([14]; in combination with NXL-104): 2 µg/mL |
